From patent US12545639B2, “3-substituted phenylamidine compounds, preparation and use thereof” (PI INDUSTRIES LTD., priority 2019, dated 2026)

Columns and labels:
Pyricularia oryzae = experiment: microbe, parasite or virus in culture; format: cell-based; conditions: 168 h, read-out: control compared to the untreated check (radial growth)
Rhizoctonia solani = Rhizoctonia solani (rice sheath blight/potato black scurf) in vitro test, radial growth on potato dextrose agar; format: cell-based; conditions: 168 h, 300 ppm in potato dextrose agar, 25° C., 60% relative humidity, seven days, read-out: control compared to the untreated check (radial growth)
Botrytis cinerea = Botrytis cinerea (gray mold) in vitro test, radial growth on potato dextrose agar; format: cell-based; conditions: 168 h, 300 ppm in potato dextrose agar, 22° C., 90% relative humidity, seven days, read-out: control compared to the untreated check (radial growth)
Alternaria solani = Alternaria solani (early blight of tomato/potato) in vitro test, radial growth on potato dextrose agar; format: cell-based; conditions: 168 h, 300 ppm in potato dextrose agar, 25° C., 60% relative humidity, seven days, read-out: control compared to the untreated check (radial growth)
[1] = test system: Septoria lycopersici/Corynespora cassicola (CORYCA); experiment: Septoria lycopersici/Corynespora cassicola (CORYCA) (leaf spot of tomato) in vitro test, radial growth on potato dextrose agar; format: cell-based; conditions: 168 h, 300 ppm in potato dextrose agar, 25° C., 70% relative humidity, seven days, read-out: control compared to the untreated check (radial growth)
Phakopsora pachyrhizi = Phakopsora pachyrhizi test in soybean, preventive, in vivo on plants; conditions: in Glycine max, read-out: Efficacy (% control), disease severity compared to the untreated check

CCN(C)C=Nc1cc(F)cc(Cc2cccc(Br)c2)c1C [Compound 205, N′-(3-(3-bromobenzyl)-5-fluoro-2-methylphenyl)-N-ethyl-N-methylformimidamide]
≥ 70%: inhibition of growth at 300 ppm (Pyricularia oryzae) | inhibition of growth at 300 ppm (Rhizoctonia solani) | inhibition of growth at 300 ppm (Botrytis cinerea) | inhibition of growth at 300 ppm (Alternaria solani) | inhibition of growth at 300 ppm [1] | pest or weed control at 500 ppm (Phakopsora pachyrhizi)

CCN(C)C=Nc1cc(F)cc(N(C)c2ccc(Cl)cc2F)c1C [Compound 140, N′-(3-((4-chloro-2-fluorophenyl)(methyl)amino)-5-fluoro-2-methylphenyl)-N-ethyl-N-methylformimidamide]
≥ 70%: inhibition of growth at 300 ppm (Pyricularia oryzae) | inhibition of growth at 300 ppm (Rhizoctonia solani) | inhibition of growth at 300 ppm (Botrytis cinerea) | inhibition of growth at 300 ppm (Alternaria solani) | inhibition of growth at 300 ppm [1]

CCN(C)C=Nc1cc(Cl)cc(Nc2ccccc2OC(F)(F)F)c1C [Compound 301, N′-(5-chloro-2-methyl-3-((2-(trifluoromethoxy)phenyl)amino)phenyl)-N-ethyl-N-methylformimidamide]
≥ 70%: inhibition of growth at 300 ppm (Pyricularia oryzae) | inhibition of growth at 300 ppm (Rhizoctonia solani) | inhibition of growth at 300 ppm (Botrytis cinerea) | inhibition of growth at 300 ppm (Alternaria solani) | inhibition of growth at 300 ppm [1] | pest or weed control at 500 ppm (Phakopsora pachyrhizi)

CCN(C)C=Nc1cc(F)cc(Nc2cccc(C(F)(F)F)n2)c1C [Compound 273, N-ethyl-N′-(5-fluoro-2-methyl-3-((6-(trifluoromethyl)pyridin-2-yl)amino)phenyl)-N-methylformimidamide]
≥ 70%: inhibition of growth at 300 ppm (Pyricularia oryzae) | inhibition of growth at 300 ppm (Rhizoctonia solani) | inhibition of growth at 300 ppm (Botrytis cinerea) | inhibition of growth at 300 ppm (Alternaria solani) | inhibition of growth at 300 ppm [1] | pest or weed control at 500 ppm (Phakopsora pachyrhizi)

CCN(C)C=Nc1cc(C)cc(Cc2cccc(F)c2)c1Cl [Compound 22, N′-(2-chloro-3-(3-fluorobenzyl)-5-methylphenyl)-N-ethyl-N-methylformimidamide]
≥ 70%: inhibition of growth at 300 ppm (Pyricularia oryzae) | inhibition of growth at 300 ppm (Rhizoctonia solani) | inhibition of growth at 300 ppm (Botrytis cinerea) | inhibition of growth at 300 ppm (Alternaria solani) | inhibition of growth at 300 ppm [1] | pest or weed control at 500 ppm (Phakopsora pachyrhizi)

CCN(C)C=Nc1cc(C#N)cc(Cc2cccc(F)c2)c1C [Compound 297, N′-(5-cyano-3-(3-fluorobenzyl)-2-methylphenyl)-N-ethyl-N-methylformimidamide]
≥ 70%: inhibition of growth at 300 ppm (Pyricularia oryzae) | inhibition of growth at 300 ppm (Botrytis cinerea) | inhibition of growth at 300 ppm (Alternaria solani) | inhibition of growth at 300 ppm [1] | pest or weed control at 500 ppm (Phakopsora pachyrhizi)

CCN(C)C=Nc1cc(C)cc(Nc2ccccc2OC(F)(F)F)c1Cl [Compound 302, N′-(2-chloro-5-methyl-3-((2-(trifluoromethoxy)phenyl)amino)phenyl)-N-ethyl-N-methylformimidamide]
≥ 70%: inhibition of growth at 300 ppm (Pyricularia oryzae) | inhibition of growth at 300 ppm (Rhizoctonia solani) | inhibition of growth at 300 ppm (Botrytis cinerea) | inhibition of growth at 300 ppm (Alternaria solani) | inhibition of growth at 300 ppm [1]

CCN(C)C=Nc1cc(F)cc(Cc2ccccc2F)c1C [Compound 141, N-ethyl-N′-(5-fluoro-3-(2-fluorobenzyl)-2-methylphenyl)-N-methylformimidamide]
≥ 70%: inhibition of growth at 300 ppm (Pyricularia oryzae) | inhibition of growth at 300 ppm (Rhizoctonia solani) | inhibition of growth at 300 ppm (Botrytis cinerea) | inhibition of growth at 300 ppm [1]

CCN(C)C=Nc1cc(F)cc(Nc2ccc(Cl)cc2F)c1C [Compound 136, N′-(3-((4-chloro-2-fluorophenyl)amino)-5-fluoro-2-methylphenyl)-N-ethyl-N-methylformimidamide]
≥ 70%: inhibition of growth at 300 ppm (Pyricularia oryzae) | inhibition of growth at 300 ppm (Rhizoctonia solani) | inhibition of growth at 300 ppm (Botrytis cinerea) | inhibition of growth at 300 ppm (Alternaria solani) | inhibition of growth at 300 ppm [1]

CCN(C)C=Nc1cc(F)cc(N(C)c2cc(C)cc(F)c2)c1C [Compound 119, N-ethyl-N′-(5-fluoro-3-((3-fluoro-5-methylphenyl)(methyl)amino)-2-methylphenyl)-N-methylformimidamide]
≥ 70%: inhibition of growth at 300 ppm (Pyricularia oryzae) | inhibition of growth at 300 ppm (Botrytis cinerea) | inhibition of growth at 300 ppm (Alternaria solani) | inhibition of growth at 300 ppm [1] | pest or weed control at 500 ppm (Phakopsora pachyrhizi)

CCN(C)C=Nc1cc(F)cc(Nc2ccc(F)cc2F)c1C [Compound 76, N′-(3-((2,4-difluorophenyl)amino)-5-fluoro-2-methylphenyl)-N-ethyl-N-methylformimidamide]
≥ 70%: inhibition of growth at 300 ppm (Pyricularia oryzae) | inhibition of growth at 300 ppm (Rhizoctonia solani) | inhibition of growth at 300 ppm (Botrytis cinerea) | inhibition of growth at 300 ppm (Alternaria solani) | inhibition of growth at 300 ppm [1]

CCN(C)C=Nc1cc(F)cc(N(C)c2cc(C)ccc2Cl)c1C [Compound 117, N′-(3-((2-chloro-5-methylphenyl)(methyl)amino)-5-fluoro-2-methylphenyl)-N-ethyl-N-methylformimidamide]
≥ 70%: inhibition of growth at 300 ppm (Pyricularia oryzae) | inhibition of growth at 300 ppm (Botrytis cinerea) | inhibition of growth at 300 ppm (Alternaria solani) | inhibition of growth at 300 ppm [1] | pest or weed control at 500 ppm (Phakopsora pachyrhizi)

CCN(C)C=Nc1cc(F)cc(N(C)c2cc(F)cc(F)c2)c1C [Compound 84, N′-(3-((3,5-difluorophenyl)(methyl)amino)-5-fluoro-2-methylphenyl)-N-ethyl-N-methylformimidamide]
≥ 70%: inhibition of growth at 300 ppm (Rhizoctonia solani) | inhibition of growth at 300 ppm (Botrytis cinerea) | inhibition of growth at 300 ppm (Alternaria solani) | inhibition of growth at 300 ppm [1] | pest or weed control at 500 ppm (Phakopsora pachyrhizi)

CCN(C)C=Nc1cc(C)cc(N(C)c2cccc(C)c2)c1Cl [Compound 43, N′-(2-chloro-5-methyl-3-(methyl(m-tolyl)amino)phenyl)-N-ethyl-N-methylformimidamide]
≥ 70%: inhibition of growth at 300 ppm (Botrytis cinerea) | inhibition of growth at 300 ppm (Alternaria solani) | inhibition of growth at 300 ppm [1] | pest or weed control at 500 ppm (Phakopsora pachyrhizi)

CCN(C)C=Nc1cc(Cl)cc(N(C)c2ccccc2)c1C [Compound 159, N′-(5-chloro-2-methyl-3-(methyl(phenyl)amino)phenyl)-N-ethyl-N-methylformimidamide]
≥ 70%: inhibition of growth at 300 ppm (Pyricularia oryzae) | inhibition of growth at 300 ppm (Botrytis cinerea) | inhibition of growth at 300 ppm (Alternaria solani) | inhibition of growth at 300 ppm [1] | pest or weed control at 500 ppm (Phakopsora pachyrhizi)

CCN(C)C=Nc1cc(C)cc(Nc2ccc(F)c(F)c2)c1Cl [Compound 72, N′-(2-chloro-3-((3,4-difluorophenyl)amino)-5-methylphenyl)-N-ethyl-N-methylformimidamide]
≥ 70%: inhibition of growth at 300 ppm (Pyricularia oryzae) | inhibition of growth at 300 ppm (Rhizoctonia solani) | inhibition of growth at 300 ppm (Botrytis cinerea) | inhibition of growth at 300 ppm (Alternaria solani) | inhibition of growth at 300 ppm [1]

CCN(C)C=Nc1cc(C#N)cc(Cc2ccccc2)c1C [Compound 308, N′-(3-benzyl-5-cyano-2-methylphenyl)-N-ethyl-N-methylformimidamide]
≥ 70%: inhibition of growth at 300 ppm (Pyricularia oryzae) | inhibition of growth at 300 ppm (Rhizoctonia solani) | inhibition of growth at 300 ppm (Botrytis cinerea) | inhibition of growth at 300 ppm (Alternaria solani) | inhibition of growth at 300 ppm [1]

CCN(C)C=Nc1cc(F)cc(Nc2ccccc2OC(F)(F)F)c1C [Compound 303, N-ethyl-N′-(5-fluoro-2-methyl-3-((2-(trifluoromethoxy)phenyl)amino)phenyl)-N-methylformimidamide]
≥ 70%: inhibition of growth at 300 ppm (Pyricularia oryzae) | inhibition of growth at 300 ppm (Rhizoctonia solani) | inhibition of growth at 300 ppm (Botrytis cinerea) | inhibition of growth at 300 ppm (Alternaria solani) | inhibition of growth at 300 ppm [1]
